Laboratory results published in US20100249058A1, “FEED ADDITIVE AND FEED” (IDEMITSU KOSAN CO., LTD., priority 2006, published 2010).

Experiments:
Format in all cases: cell-based
[1] = test system: Staphylococcus, Streptococcus, and Bacillus bacteria; assay: Evaluation of antibiotic activities (summary over the tested bacteria); settings: result in words
Protocol: (§1) Minimum inhibitory concentrations (MICs) of each of the bacteria shown in Table 1 were measured for the MEL and rhamnolipids by the following procedures.
The above-mentioned bacteria were precultured in a bouillon medium for sensitivity determination (NISSUI PHARMACEUTICAL CO., LTD.). The concentrations of the bacteria in the culture solutions were adjusted to about 1.0×10^5 to 10^6 CFU/ml with physiological saline, and the bacteria were inoculated into the measurement mediums. As the measurement mediums, a medium for sensitivity measurement (NISSUI PHARMACEUTICAL CO., LTD.) was used for Staphylococcus aureus, Staphylococcus epidermidis, and Bacillus subtilis, and a blood agar medium (heart infusion medium: NISSUI PHARMACEUTICAL CO., LTD., sheep sterile defibrinated blood: Kohjin Bio Co. Ltd.) was used for Streptococcus suis and Streptococcus bovis. […] After completion of culture, the MICs were measured.
(§2) The MEL crude purified product obtained in section <1> (purity 69%) was used as MEL, and the rhamnolipid crude purified product obtained in section <2> (purity 55%) was used as rhamnolipids. Meanwhile, for the purpose of comparison, MICs of sucrose ester (sucrose manodecanoate: manufactured by SIGMA-ALDRICH Japan K.K.), mannose (manufactured by Wako Pure Chemical Industries, Ltd.), and rhamnose (manufactured by SIGMA-ALDRICH Japan K.K.) were measured.

Streptococcus bovis = assay: Minimum inhibitory concentration (MIC) measurement; settings: blood agar medium, 37° C., about 20 hours, 5% CO2
Protocol: as §1
(§3) The above-mentioned bacteria were precultured in a bouillon medium for sensitivity determination (NISSUI PHARMACEUTICAL CO., LTD.). The concentrations of the bacteria in the culture solutions were adjusted to about 1.0×10^5 to 10^6 CFU/ml with physiological saline, and the bacteria were inoculated into the measurement mediums. As the measurement mediums, a medium for sensitivity measurement (NISSUI PHARMACEUTICAL CO., LTD.) was used for Staphylococcus aureus, Staphylococcus epidermidis, and Bacillus subtilis, and a blood agar medium (heart infusion medium: NISSUI PHARMACEUTICAL CO., LTD., sheep sterile defibrinated blood: Kohjin Bio Co. Ltd.) was used for Streptococcus suis and Streptococcus bovis. Culture was performed at 37° C. for about 20 hours under aerobic conditions for Staphylococcus aureus, Staphylococcus epidermidis, and Bacillus subtilis or under 5% CO2 conditions for Streptococcus suis and Streptococcus bovis. After completion of culture, the MICs were measured.
as §2

Bacillus subtilis = assay: Minimum inhibitory concentration (MIC) measurement; settings: 37° C., about 20 hours, aerobic
Protocol: as §1, §3, §2

Streptococcus suis = assay: Minimum inhibitory concentration (MIC) measurement; settings: blood agar medium, 37° C., about 20 hours, 5% CO2
Protocol: as §1, §3, §2

Staphylococcus aureus = assay: Minimum inhibitory concentration (MIC) measurement; settings: 37° C., about 20 hours, aerobic
Protocol: as §1, §3, §2

[2] = test system: Staphylococcus epidermidis; assay: Minimum inhibitory concentration (MIC) measurement; settings: 37° C., about 20 hours, aerobic
Protocol: as §1, §3, §2

Molecule | antibiotic activities [1] | Minimum inhibitory concentration (MIC) (Streptococcus bovis) | Minimum inhibitory concentration (MIC) (Bacillus subtilis) | Minimum inhibitory concentration (MIC) (Streptococcus suis) | Minimum inhibitory concentration (MIC) (Staphylococcus aureus) | Minimum inhibitory concentration (MIC) [2]
C[C@H](O)[C@H](O)[C@@H](O)[C@@H](O)C=O [Rhamnose, rhamnose] | no antibiotic activities | <1600 | <1600 | <1600 | <1600 | <1600
sucrose manodecanoate [Sucrose ester] | – | 800 | 400 | 800 | <1600 | <1600
